Experimental data: patent publication US9840464B2, “IAP binding compounds” (TetraLogic Birinapant UK Ltd., priority 2004, dated 2017)

These molecules were tested against XIAP-BIR3 (Homo sapiens, UniProt P98170) (assay: XIAP BIR3 fluorescence polarization binding assay (competition with AbuRPF-K(5-Fam)-NH2)). Conditions: 5 nM AbuRPF-K(5-Fam)-NH2, 40 nM XIAP-BIR3, pH 7.5; Kd calculated from measured IC50; read-out: KD Range.
Procedure: Binding constants (Kd) were measured using fluorescence polarization as described by Zaneta Nikolovska-Coleska, Renxiao Wang, Xueliang Fang, Hongguang Pan, York Tomita, Peng Li, Peter P. Roller, Krzysztof Krajewski, Naoyuki Saito, Jeanne Stuckey and Shaomeng Wang, in “Development and Optimization of a Binding Assay for the XIAP BIR3 Domain Using Fluorescence Polarization”, Analytical Biochemistry 2004, 332, 261-273). Briefly, test IAP binding compounds at various concentrations for binding measurements were mixed with 5 nM fluorescently labeled peptide (AbuRPF-K(5-Fam)-NH2) and 40 nM of XIAP-BIR3 for 15 minutes at room temperature in 100 μL of 0.1M Potassium Phosphate buffer, pH 7.5 containing 100 μg/ml bovine γ-globulin. Following incubation, the polarization values (mP) were measured on a Victor^2V using a 485 nm excitation filter and a 520 nm emission filter. IC50 values were determined from the plot using nonlinear least-squares analysis using GraphPad Prism. The Kd values of competitive inhibitors were calculated using the equation described by Zaneta Nikolovska-Coleska et al. based upon the measured IC50 values, the Kd value of the probe and XIAP BIR3 complex, and the concentrations of the protein and probe in the competition assay. In various examples of IAP binding or IAP binding cargo molecules ranges for Kd values: Group A: Kd<0.1 μM; Group B: Kd=0.1-1 μM; Group C: Kd=1-10 μM; Group D: Kd>10 μM.

XIAP-BIR3, sequence (P98170 241-356 limits assumed): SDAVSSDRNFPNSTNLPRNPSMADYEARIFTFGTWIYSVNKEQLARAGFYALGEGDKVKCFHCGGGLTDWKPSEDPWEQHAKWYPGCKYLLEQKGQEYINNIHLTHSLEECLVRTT

Row | Kd [nM] | Compound
1 | 1000 to 10000 | COc1ccc2occ(CC3CCCN3C(=O)C(NC(=O)C(C)N)C(C)C)c2c1 (centres unmarked) [Entry 7-76, 2-Amino-N-{1-[2-(5-methoxy-benzofuran-3-ylmethyl)-pyrrolidine-1-carbonyl]-2-methyl-propyl}-propionamide]
2 | > 10000 | CC(N)C(=O)NC(C(=O)N1CCCC1Cc1coc2ccc(OCC3CC3)cc12)C(C)C (centres unmarked) [Entry 7-77]
3 | 100 to 1000 | CC(N)C(=O)NC(C(=O)N1CCCC1Cc1coc2ccc(-c3ccncc3)cc12)C(C)C (centres unmarked) [Entry 8-78]
4 | 100 to 1000 | CC(N)C(=O)NC(C(=O)N1CCCC1Cc1c(Br)oc2ccccc12)C(C)C (centres unmarked) [Entry 9-80]
5 | < 100 | CC(C)[C@H](NC(=O)[C@H](C)N)C(=O)N1CCC[C@H]1Cc1c(-c2ccncc2)oc2ccccc12 [Entry 9-81, 2S-Amino-N-{2-methyl-1S-[2S-(2-pyridin-4-yl-benzofuran-3-ylmethyl)-pyrrolidine-1-carbonyl]-propyl}-propionamide]
6 | 100 to 1000 | CC(N)C(=O)NC(C(=O)N1CCCC1Cc1c(-c2cccnc2)oc2ccccc12)C(C)C (centres unmarked) [Entry 9-82]
7 | 100 to 1000 | CC(N)C(=O)NC(C(=O)N1CCCC1Cc1c(-c2nccs2)oc2ccccc12)C(C)C (centres unmarked) [Entry 9-85]
8 | < 100 | CC(N)C(=O)NC(C(=O)N1CCCC1Cc1c(-c2cnccn2)oc2ccccc12)C(C)C (centres unmarked) [Entry 9-86]
9 | 1000 to 10000 | CC(N)C(=O)NC(C(=O)N1CCCC1Cc1c(-c2ccccc2)[nH]c2ccccc12)C(C)C (centres unmarked) [Entry 9-88]
10 | 1000 to 10000 | CCOC(=O)CCc1oc2ccccc2c1CC1CCCN1C(=O)C(NC(=O)C(C)N)C(C)C (centres unmarked) [Entry 10-89, 3-(3-{1-[2-(2-Amino-propionylamino)-3-methyl-butyryl]-pyrrolidin-2-ylmethyl}-benzofuran-2-yl)-propionic acid ethyl ester]
11 | 100 to 1000 | CC(N)C(=O)NC(C(=O)N1CCCC1Cc1c(CCC(=O)O)oc2ccccc12)C(C)C (centres unmarked) [Entry 10-90]
12 | 100 to 1000 | C[C@H](N)C(=O)N[C@H]1CCCNC(=O)CCc2oc3ccccc3c2C[C@@H]2CCCN2C1=O [Entry 11-91, Ornithine-derived Lactam]
13 | 1000 to 10000 | CC(N)C(=O)NC1CCCCNC(=O)CCc2oc3ccccc3c2CC2CCCN2C1=O (centres unmarked) [Entry 12-92]
14 | 100 to 1000 | C[C@H](N)C(=O)N[C@H]1Cc2ccc(cc2)OCCCc2oc3ccccc3c2C[C@@H]2CCCN2C1=O [Entry 13-93, Tyrosine-derived Cyclic Ether]
15 | < 100 | CC(=O)n1cc(C[C@@H]2CCCN2C(=O)[C@@H](NC(=O)[C@H](C)N)C(C)C)c2ccccc21 [Entry 14-94, N-{1S-[2S-(1-Acetyl-1H-indol-3-ylmethyl)-pyrrolidine-1-carbonyl]-2-methyl-propyl}-2S-amino-propionamide]
16 | > 10000 | CC(=O)n1cc(CC2CCCN2C(=O)C(NC(=O)CN)C(C)C)c2ccccc21 (centres unmarked) [Entry 14-95]

Row | Kd [nM] | Compound
17 | 100 to 1000 | CNC(C)C(=O)NC(C(=O)N1CCCC1Cc1cn(C(C)=O)c2cc(F)ccc12)C(C)(C)C (centres unmarked) [Entry 14-96]
18 | 100 to 1000 | CNC(C)C(=O)NC(C(=O)N1CCCC1Cc1cn(C(C)=O)c2cc(F)ccc12)C1CCCCC1 (centres unmarked) [Entry 14-97]
19 | < 100 | CC(=O)n1cc(CC2CCCN2C(=O)C(NC(=O)C(C)N)C(C)C)c2cccc(C)c21 (centres unmarked) [Entry 14-98]
20 | 100 to 1000 | CC(C)[C@H](NC(=O)[C@H](C)N)C(=O)N1CCC[C@H]1Cc1c[nH]c2ccccc12 [Entry 14-99, 2S-Amino-N-{1S-[2S-(1H-indol-3-ylmethyl)-pyrrolidine-1-carbonyl]-2-methyl-propyl}-propionamide]
21 | < 100 | Cc1cccc2c(CC3CCCN3C(=O)C(NC(=O)C(C)N)C(C)C)c[nH]c12 (centres unmarked) [Entry 14-100]
22 | > 10000 | CC(NC(=O)OC(C)(C)C)C(=O)NC(C(=O)N1CCCC1Cc1cn(C(=O)OC(C)(C)C)c2ccccc12)C(C)C (centres unmarked) [Entry 14-101]
23 | 100 to 1000 | CC#CCn1cc(CC2CCCN2C(=O)C(NC(=O)C(C)N)C(C)C)c2ccccc21 (centres unmarked) [Entry 14-102]
24 | < 100 | C#CCn1cc(CC2CCCN2C(=O)C(NC(=O)C(C)N)C(C)C)c2ccccc21 (centres unmarked) [Entry 14-103]
25 | 100 to 1000 | CNC(C)C(=O)NC(C(=O)N1CCCC1Cc1c[nH]c2cc(F)ccc12)C1CCCCC1 (centres unmarked) [Entry 14-104]
26 | < 100 | CNC(C)C(=O)NC(C(=O)N1CCCC1Cc1c(-c2cccs2)[nH]c2cc(F)ccc12)C(C)(C)C (centres unmarked) [Entry 15-108]
27 | 100 to 1000 | CNC(C)C(=O)NC(C(=O)N1CCCC1Cc1cn(CCOCCOCCOC)c2cc(F)ccc12)C1CCCCC1 (centres unmarked) [Entry 16-109, N-{1-Cyclohexyl-2-[2-(6-fluoro-1-{2-[2-(2-methoxy-ethoxy)-ethoxy]-ethyl}-1H-indol-3-ylmethyl)-pyrrolidin-1-yl]-2-oxo-ethyl}-2-methylamino-propionamide]
28 | 100 to 1000 | CCC(NC)C(=O)NC(C(=O)N1CCCC1Cc1cn(CCOCCOCCOC)c2ccccc12)C1CCCCC1 (centres unmarked) [Entry 16-110]
29 | 100 to 1000 | CNC(C)C(=O)NC(C(=O)N1CCCC1Cc1cn(CCOCCOCCOC)c2ccccc12)C1CCCCC1 (centres unmarked) [Entry 16-111]
30 | < 100 | CNC(C)C(=O)NC(C(=O)N1CCCC1Cc1c(Br)n(CCOCCOCCO)c2cc(F)ccc12)C(C)(C)C (centres unmarked) [Entry 16-112]
31 | < 100 | CNC(C)C(=O)NC(C(=O)N1CCCC1Cc1c(Br)n(CCOCCOCCOC)c2cc(F)ccc12)C(C)(C)C (centres unmarked) [Entry 16-113]
32 | < 100 | CNC(C)C(=O)NC(C(=O)N1CCCC1Cc1c(-c2cccs2)n(CCOCCOCCOC)c2cc(F)ccc12)C(C)(C)C (centres unmarked) [Entry 16-114]

Row | Compound | Kd [nM]
33 | Cc1ccc(S(=O)(=O)n2cc(C[C@@H]3CCCN3C(=O)[C@@H](NC(=O)[C@H](C)N)C(C)C)c3ccccc32)cc1 [Entry 15-107, 2S-Amino-N-(2-methyl-1S-{2S-[1-(toluene-4-sulfonyl)-1H-indol-3-ylmethyl]-pyrrolidine-1-carbonyl}-propyl)-propionamide] | < 100

Each molecule was assayed on SK-OV-3 cells (assay: MTT cell growth/survival assay). Conditions: Homo sapiens, 72 hrs incubation, drug concentration that results in 50% cell survival.
Assay type: cell-based
Procedure: The MTT assay is an example of an assay that has been used for measuring cell growth as previously described (Hansen, M. B., Nielsen, S. E., and Berg, K. J. Immunol. Methods 1989, 119, 203-210) and incorporated herein by reference in its entirety. Briefly, SK-OV-3 cells were seeded in 96-well plates in McCoy's medium containing 10% fetal bovine serum […] (20,000 per well) and incubated overnight at 37° C. Next day, test compounds were added at various concentrations typically from about 10 to about 0.0001 μM and the plates were incubated at 37° C. for an additional 72 hrs. This incubation time was optimal for measuring inhibitory effects of different analogs. 50 microliters of 5 mg/mL MTT reagent to each well was added and the plates were incubated at 37° C. for 3 hours. At the end of incubation period, 50 microliters of DMSO was added to each well to dissolve cells and the optical density (OD) of the wells was measured with a microplate reader (Victor^2 1420, Wallac, Finland) at 535 nm. Cell survival (CS) was calculated by the following equation: CS=(OD treated well/mean OD control wells)×100%
The EC50, defined as the drug concentration that results in 50% CS, was derived by calculating the point where the dose-response curve crosses the 50% CS point using GraphPad Prism.

Row | Compound | EC50 [µM]
34 | CNC(C)C(=O)NC(C(=O)N1CCCC1Cc1c[nH]c2cc(F)ccc12)C1CCCCC1 (centres unmarked) [Entry 14-104] | 0.515 ± 0.093
35 | CNC(C)C(=O)NC(C(=O)N1CCCC1Cc1cn(CCOCCOCCOC)c2cc(F)ccc12)C1CCCCC1 (centres unmarked) [Entry 16-109, N-{1-Cyclohexyl-2-[2-(6-fluoro-1-{2-[2-(2-methoxy-ethoxy)-ethoxy]-ethyl}-1H-indol-3-ylmethyl)-pyrrolidin-1-yl]-2-oxo-ethyl}-2-methylamino-propionamide] | 0.06 ± 0.026
